Measurements reported in patent publication US20050124674A1, “Synergistic biocide composition” (priority 1998, published 2005).

How the values were obtained:
Experiment in all cases: MIC / synergy test of MIT and IPBC mixtures in Sabouraud maltose broth
Type in all cases: cell-based
[1] = tested on: Aspergillus niger; details: 96 hours; for MIC value: biocide used alone; for Synergy index Qa/QA + Qb/QB: method of Kull et al.
Procedure: (§1) The calculation of the synergy index is performed according to the method by F. C. Kull et al., Applied Microbiology, vol. 9 (1961), p. 538. The synergy index is calculated here using the following formula: Synergy index SI=Qa/QA+Qb/QB.
(§2) When this formula is used for the biocide system tested here, the variables in the formula have the following meaning: • […]=Concentration of MIT in biocide mixture of MIT and IPBC • QA=Concentration of MIT as the only biocide • Qb=Concentration of IPBC in biocide mixture of MIT and IPBC • QB=Concentration of IPBC as the only biocide
(§3) When the synergy index has a value of less than 1, that means that a synergy of the two biocides exists.
(§4) The test arrangements again included a Sabouraud maltose broth as culture medium. The cell density was 10^6 cells/ml. The incubation time was 96 hours at 25° C. Every sample was incubated at 120 r.p.m. on an incubation shaker.

[2] = tested on: Candida valida; details: 96 hours; for MIC value: biocide used alone; for Synergy index Qa/QA + Qb/QB: method of Kull et al.
Procedure: as §1, §2, §3, §4

[3] = tested on: Penicillium funiculosum; details: for MIC at IPBC concentration Qb: IPBC part of the MIC pair; for MIC value: biocide used alone; for Synergy index Qa/QA + Qb/QB: method of Kull et al.; for MIC at MIT concentration Qa: MIT part of the MIC pair
Procedure: as §1, §2, §3
The test arrangement again included a Sabouraud maltose broth as culture medium. The cell density was 10^6 germs/ml. The incubation time was 72 hours at 25° C. Every sample was incubated at 120 r.p.m. on an incubation shaker.
Example 5 was repeated with the change that the incubation time was 96 hours instead of 72 hours.

[4] = tested on: Saccharomyces cerevisiae; details: for MIC at IPBC concentration Qb: IPBC part of the MIC pair; for MIC value: biocide used alone; for Synergy index Qa/QA + Qb/QB: method of Kull et al.; for MIC at MIT concentration Qa: MIT part of the MIC pair
Procedure: For that purpose, aqueous mixtures with different concentrations of 2-methylisothiazolin-3-one (MIT) and 3-iodo-2-propynyl-N-butylcarbamate (IPBC) were produced and the effects of those mixtures on Saccharomyces cerevisiae were tested.
In addition to the biocide components and water, the aqueous mixtures also contained a nutrient medium, specifically a Sabouraud maltose broth (trade product “Merck No. 10393”). The cell density of Saccharomyces cerevisiae was 10^6 cells/ml. The incubation time was 72 hours at 25° C. Each sample was incubated at 120 r.p.m. on an incubation shaker.
as §1, §2, §3
Example 1 was repeated with the change that the incubation time was 96 hours instead of 72 hours.

Which results are given for `CCCCNC(=O)OCC#CI` [IPBC, 3-iodo-2-propynyl-N-butylcarbamate]?
MIC at IPBC concentration Qb ([1]; IPBC part of the MIC pair): 5 ppm; MIC value [1]: 5 ppm; Synergy index Qa/QA + Qb/QB [1]: 1.00; MIC at IPBC concentration Qb ([2]; IPBC part of the MIC pair): 2.5 ppm; MIC value [2]: 2.5 ppm; Synergy index Qa/QA + Qb/QB [2]: 1.00; MIC at IPBC concentration Qb ([3]; 72 hours): 1.5 ppm; MIC value ([3]; 72 hours): 1.5 ppm; Synergy index Qa/QA + Qb/QB ([3]; 72 hours): 1.00; MIC at IPBC concentration Qb ([3]; 96 hours): 1.5 ppm; MIC value ([3]; 96 hours): 1.5 ppm; Synergy index Qa/QA + Qb/QB ([3]; 96 hours): 1.00; MIC at IPBC concentration Qb ([4]; 72 hours): 10 ppm; MIC value ([4]; 72 hours): 10 ppm; Synergy index Qa/QA + Qb/QB ([4]; 72 hours): 1.00; MIC at IPBC concentration Qb ([4]; 96 hours): 10 ppm; MIC value ([4]; 96 hours): 10 ppm; Synergy index Qa/QA + Qb/QB ([4]; 96 hours): 1.00

How did the “MIC at MIT concentration Qa” value ([1]; MIT part of the MIC pair) turn out when `Cn1sccc1=O` [MIT, 2-methylisothiazolin-3-one] was run?
Its value is 750 ppm.

And the MIC value [1]?
The MIC value was 750 ppm.

What about the “Synergy index Qa/QA + Qb/QB” value [1] of the same molecule?
Its value is 1.00.

And the “MIC at MIT concentration Qa” value ([2]; MIT part of the MIC pair)?
The value was 75 ppm.

What about the MIC value [2] of the same molecule?
The MIC value was 75 ppm.

What about the “Synergy index Qa/QA + Qb/QB” value [2] of the same molecule?
The value was 1.00.

And the “MIC at MIT concentration Qa” value ([3]; 72 hours)?
Its value is 200 ppm.

What about the MIC value ([3]; 72 hours) of the same molecule?
Its MIC value is 200 ppm.

And the “Synergy index Qa/QA + Qb/QB” value ([3]; 72 hours)?
Its value is 1.00.

What about the “MIC at MIT concentration Qa” value ([3]; 96 hours) of the same molecule?
The value was 200 ppm.

What about the MIC value ([3]; 96 hours) of the same molecule?
Its MIC value is 200 ppm.

And the “Synergy index Qa/QA + Qb/QB” value ([3]; 96 hours)?
Its value is 1.00.

What about the “MIC at MIT concentration Qa” value ([4]; 72 hours) of the same molecule?
Its value is 150 ppm.

What about the MIC value ([4]; 72 hours) of the same molecule?
The MIC value was 150 ppm.

What about the “Synergy index Qa/QA + Qb/QB” value ([4]; 72 hours) of the same molecule?
Its value is 1.00.

What about the “MIC at MIT concentration Qa” value ([4]; 96 hours) of the same molecule?
Its value is 150 ppm.

And the MIC value ([4]; 96 hours)?
Its MIC value is 150 ppm.

And the “Synergy index Qa/QA + Qb/QB” value ([4]; 96 hours)?
Its value is 1.00.
